Experimental data taken from patent publication US6395731B1, “Heterocyclic derivatives which inhibit Factor Xa” (Astrazeneca AB, priority 1998, dated 2002).
Structures can show the parent of a compound that is named as a salt.

Row | melting point [°C] | Structure (SMILES)
1 | 274 to 275 | Nc1nc(-c2ccc(C(=O)N3CCN(S(=O)(=O)c4ccc5cc(Br)ccc5c4)CC3)cc2)c[nH]1 (as salt: salt) [Example 4, 1-(6-Bromonaphth-2-ylsulphonyl)-4-[4-(2-aminoimidazol-4-yl)benzoyl]piperazine]
2 | 215 to 216 | Cc1nc(-c2ccc(C(=O)N3CCN(S(=O)(=O)c4ccc5cc(Br)ccc5c4)CC3)cc2)c[nH]1 [Example 3, 1-(6-Bromonaphth-2-ylsulphonyl)-4-[4-(2-methylimidazol-4-yl)benzoyl]piperazine]
